In patent publication US4046914A, “Therapeutically active substituted saturated and mono-and polyunsaturated alkyl-glycerylethers” (Astra Nutrition AB, priority 1975, dated 1977):

Test system: He La cells
Assay: growth of He La cells (cell counts in Burker chamber)
Assay type: cell-based
Description: Hank's solution containing 0,5 % hydrolysate of lactalbumin, 7 % calf serum and with 7 ml 0,15 % sodium bicarbonate and 20-40.000 I.U. of penicillin and streptomycin added per 100 ml was used for the cultivation of the He La cells. pH was 7,4 at the beginning of the experiment. The medium was changed 2 times per week. A suspension of He La cells was obtained by treatment with versene. The glycerol ethers were dissolved in the medium in concentrations of 1, 5, 25 and 100 μg/ml. 1,5 ml of cell suspension, containing 10^6 cells/ml, was added to 18,5 ml medium. The growth was registered by counting the cells in a Burker chamber.

## CCCCCCCCCCCCCCC(COCC(O)CO)OC (centres unmarked) [AII, 1-O-(2-methoxyhexadecyl)-glycerol]
25 μg/ml
  cytostatic action: acted clearly cytostatically
  time to completely suppressed growth: about 15 days
25 μg/ml, 14 days at 37° C
  effect on He La cell growth: growth inhibiting and later on a cell killing effect
Table II, 5 μg/ml, 1 day, controls 54
  Cell counts: 201
Table II, 5 μg/ml, 3 days, controls 122
  Cell counts: 137
Table II, 5 μg/ml, 6 days, controls 186
  Cell counts: 225
Table II, 25 μg/ml, 1 day, controls 54
  Cell counts: 206
Table II, 25 μg/ml, 3 days, controls 122
  Cell counts: 91
Table II, 25 μg/ml, 6 days, controls 186
  Cell counts: 148
Table II, 100 μg/ml, 1 day, controls 54
  Cell counts: 157
Table II, 100 μg/ml, 3 days, controls 122
  Cell counts: All cells dead
Table II, 100 μg/ml, 6 days, controls 186
  Cell counts: All cells dead
Table III, 5 μg/ml, 1 day, controls 78
  Cell counts: 63
Table III, 5 μg/ml, 2 days, controls 98
  Cell counts: 113
Table III, 5 μg/ml, 6 days, controls 228
  Cell counts: 205
Table III, 5 μg/ml, 10 days, controls 359
  Cell counts: 407
Table III, 25 μg/ml, 1 day, controls 78
  Cell counts: 64
Table III, 25 μg/ml, 2 days, controls 98
  Cell counts: 154
Table III, 25 μg/ml, 6 days, controls 228
  Cell counts: 160
Table III, 25 μg/ml, 10 days, controls 359
  Cell counts: 272
Table IV, 1 μg/ml, 2 days, controls 138
  Cell counts: 121
Table IV, 1 μg/ml, 5 days, controls 172
  Cell counts: 271
Table IV, 1 μg/ml, 8 days, controls 520
  Cell counts: 598
Table IV, 1 μg/ml, 11 days, controls 757
  Cell counts: 546
Table IV, 1 μg/ml, 14 days, controls 649
  Cell counts: 557
Table IV, 5 μg/ml, 2 days, controls 138
  Cell counts: 113
Table IV, 5 μg/ml, 5 days, controls 172
  Cell counts: 200
Table IV, 5 μg/ml, 8 days, controls 520
  Cell counts: 488
Table IV, 5 μg/ml, 11 days, controls 757
  Cell counts: 546
Table IV, 5 μg/ml, 14 days, controls 649
  Cell counts: 637
Table IV, 25 μg/ml, 2 days, controls 138
  Cell counts: 107
Table IV, 25 μg/ml, 5 days, controls 172
  Cell counts: 107
Table IV, 25 μg/ml, 8 days, controls 520
  Cell counts: 241
Table IV, 25 μg/ml, 11 days, controls 757
  Cell counts: 112
Table IV, 25 μg/ml, 14 days, controls 649
  Cell counts: 0
Table V, 1 μg/ml, 3 days, controls 210
  Cell counts: 293
Table V, 1 μg/ml, 6 days after transfer, controls 176
  Cell counts: 169
Table V, 1 μg/ml, 8 days, controls 510
  Cell counts: 498
Table V, 5 μg/ml, 3 days, controls 210
  Cell counts: 246
Table V, 5 μg/ml, 6 days after transfer, controls 176
  Cell counts: 136
Table V, 5 μg/ml, 8 days, controls 510
  Cell counts: 517
